The text below walks through data of article PMC10226132, “First-in-Class Selective Inhibitors of the Lysine Acetyltransferase KAT8” (Journal of Medicinal Chemistry, 2023).

Common to all, as to assay type: biochemical
Assay [1] addresses T1, KAT2B (Homo sapiens, UniProt Q92831).
T1 construct: KAT2B (aa 492–658, 25 nM); purchased Reaction Biology Corporation
As to the kind of experiment: HotSpot KAT assay, KAT2B. The note with it: enzyme 25 nM; NI = no inhibition at 200 μM; mean ± SD of three independent experiments. The method, then:
The effects of the compounds on other KATs were determined using the HotSpot KAT assay (Reaction Biology Corporation, Malvern, PA, USA) according to the supplier’s procedure. The recombinant catalytic domains of human KAT2A (aa 323–837, 15 nM), KAT2B (aa 492–658, 25 nM), KAT3B (aa 1284–1672, 1 nM), KAT6A (aa 488–778, 10 nM), KAT6B (aa 657–1069, 10 nM), and full length human KAT5 (25 nM) and KAT7 (25 nM) were used. Each enzyme was incubated with the relevant histone peptide [H3 peptide for KAT2A, KAT2B, KAT3B, KAT6A, and KAT7 (2.5–5 μM, depending on the KAT isoform); H2A peptide for KAT5 (1.25 μM); H4 peptide for KAT6B (2.5 μM)] as a substrate and radio-isotope-labeled [^3H]Acetyl-CoA (0.2–1.5 μM, depending on the KAT isoform) as an acetyl donor in the assay buffer [50 mM Tris–HCl (pH 8.0), 50 mM NaCl, 0.1 mM EDTA, 1 mM DTT, 0.1 mM PMSF, 1% DMSO] for 1 h at 30 °C in the presence or absence of various compounds (1% DMSO final) titrated in a 2-fold serial dilution starting at 200 μM. Histone peptide acetylation was assessed by liquid scintillation counting using a Tri-Carb 2800TR Liquid Scintillation Analyzer (Perkin Elmer). Experiments were performed in biological triplicates. Signal reduction compared to control was plotted (as inhibition percentage) as a function of compound concentration. In cases in which an IC50 was calculated, the values were fitted by nonlinear regression (GraphPad Prism 8.0).

For assay [2], the target named is T2, KAT8 (Homo sapiens, UniProt Q9H7Z6).
T2 construct: using the previously purified KAT8 (173–458, 5 nM); 6xHis tag with TEV protease cleavage site (N, cleaved yes); made in house; host or cells: E. coli BL21(DE3)
T2 sequence (Q9H7Z6 173-458): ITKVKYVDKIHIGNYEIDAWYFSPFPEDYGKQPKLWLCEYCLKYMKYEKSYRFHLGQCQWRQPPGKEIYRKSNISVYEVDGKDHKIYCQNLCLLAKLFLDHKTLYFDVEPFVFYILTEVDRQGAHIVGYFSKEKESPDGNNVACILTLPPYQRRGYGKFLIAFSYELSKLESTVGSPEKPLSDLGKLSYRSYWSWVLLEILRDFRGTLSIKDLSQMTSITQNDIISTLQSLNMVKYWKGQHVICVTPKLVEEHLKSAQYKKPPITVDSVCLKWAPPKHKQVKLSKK
As to the kind of experiment: Radioactive KAT8 inhibition assay. The method, then: Purified KAT8 was incubated with the relevant inhibitor (1% DMSO final) in a 2-fold serial dilution starting at 200 μM for 20 min at rt. Then, [^3H]Ac-CoA and biotinylated peptide were added to a total assay volume of 50 μL and the reaction mixture was incubated at rt for 4 h. The reaction was stopped, and the mixture was transferred to a 96-well streptavidin scintillant coated FlashPlate (Perkin Elmer) and incubated for 60 min at rt. The FlashPlate was washed with 0.1% Tween-20, and the liquid scintillation counting (MicroBeta Microplate Counter, Perkin Elmer) was employed to measure the radioactive signal. Experiments were performed in biological triplicates. Signal reduction compared to control was plotted (as inhibition percentage) as a function of compound concentration and fitted by nonlinear regression (GraphPad Prism 8.0) finally yielding the IC50 values.

Assay [3] deals with T3, KAT3B (Homo sapiens, UniProt Q09472).
T3 construct: KAT3B (aa 1284–1672, 1 nM); purchased Reaction Biology Corporation
T3 sequence (Q09472 1284-1672): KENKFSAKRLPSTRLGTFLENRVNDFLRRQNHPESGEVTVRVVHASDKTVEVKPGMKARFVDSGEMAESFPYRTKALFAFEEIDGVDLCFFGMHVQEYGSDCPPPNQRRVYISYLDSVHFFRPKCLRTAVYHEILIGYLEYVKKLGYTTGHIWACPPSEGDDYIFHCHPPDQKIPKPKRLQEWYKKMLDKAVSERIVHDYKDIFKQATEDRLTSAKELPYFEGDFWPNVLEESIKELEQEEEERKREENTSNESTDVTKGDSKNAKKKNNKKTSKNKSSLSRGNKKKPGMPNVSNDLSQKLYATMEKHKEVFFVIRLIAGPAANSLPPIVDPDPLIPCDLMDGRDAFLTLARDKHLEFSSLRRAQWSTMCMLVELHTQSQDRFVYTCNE
As to the kind of experiment: HotSpot KAT assay, KAT3B. The method, then: The effects of the compounds on other KATs were determined using the HotSpot KAT assay (Reaction Biology Corporation, Malvern, PA, USA) according to the supplier’s procedure. […] Histone peptide acetylation was assessed by liquid scintillation counting using a Tri-Carb 2800TR Liquid Scintillation Analyzer (Perkin Elmer). Experiments were performed in biological triplicates. Signal reduction compared to control was plotted (as inhibition percentage) as a function of compound concentration. In cases in which an IC50 was calculated, the values were fitted by nonlinear regression (GraphPad Prism 8.0).

Where [4] appears, read: read-out: IC50 KAT8 (5 nM), enzyme 5 nM, 2-fold serial dilution from 200 μM, NI = no inhibition at 200 μM, mean ± SD of three independent experiments.
Where [5] appears, read: read-out: IC50 KAT3B (1 nM), enzyme 1 nM, NI = no inhibition at 200 μM, mean ± SD of three independent experiments.

Read-outs that look alike come from different tables or passages of the source.

T1 sequence (Q92831 492-658): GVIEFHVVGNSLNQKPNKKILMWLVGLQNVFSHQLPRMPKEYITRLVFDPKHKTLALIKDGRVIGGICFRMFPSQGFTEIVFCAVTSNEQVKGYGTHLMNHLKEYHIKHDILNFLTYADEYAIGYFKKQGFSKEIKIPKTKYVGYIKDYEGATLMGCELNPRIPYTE

Take `CC1=NN(c2cccc(C(=O)O)c2)C(=O)/C1=C\c1ccc[nH]1` [Compound 36, (Z)-3-(4-((1H-Pyrrol-2-yl)methylene)-3-methyl-5-oxo-4,5-dihydro-1H-pyrazol-1-yl)benzoic Acid]: the IC50 in assay [1] is greater than 200 µM; in assay [2] (setting [4]), 19.3 ± 1.3 µM; in assay [3] (setting [5]) it was greater than 200 µM.

On to `CC1=NN(c2ccc(C(=O)O)cc2)C(=O)/C1=C\c1cccs1` [Compound 21, (Z)-4-(3-Methyl-5-oxo-4-(thiophen-2-ylmethylene)-4,5-dihydro-1H-pyrazol-1-yl)benzoic Acid], for which the IC50 in assay [1] is greater than 200 µM; in assay [2] (setting [4]), 20.8 ± 1.2 µM; in assay [3] (setting [5]), 26.5 ± 1.7 µM.

Consider `CC1=NN(c2ccc(C(=O)O)cc2)C(=O)/C1=C\c1cccn1C` [Compound 28, (Z)-4-(3-Methyl-4-((1-methyl-1H-pyrrol-2-yl)methylene)-5-oxo-4,5-dihydro-1H-pyrazol-1-yl)benzoic Acid], for which the results for the IC50 in assay [1], in assay [2] (setting [4]) and in assay [3] (setting [5]) were greater than 200 µM, 15.1 ± 1 µM and 20.8 ± 1 µM, respectively.

Take `CC1=NN(c2ccc(C(=O)O)cc2)C(=O)/C1=C\c1cc2ccccc2[nH]1` [Compound 26, (Z)-4-(4-((1H-Indol-2-yl)methylene)-3-methyl-5-oxo-4,5-dihydro-1H-pyrazol-1-yl)benzoic Acid]: the IC50 in assay [1] was greater than 200 µM; in assay [2] (setting [4]) it was 20.1 ± 0.9 µM; in assay [3] (setting [5]), 1.6 ± 0.08 µM.

Regarding `O=C(O)c1ccc(N2N=C(Cc3ccccc3)/C(=C/c3ccc[nH]3)C2=O)cc1` [Compound 35, (Z)-4-(4-((1H-Pyrrol-2-yl)methylene)-3-benzyl-5-oxo-4,5-dihydro-1H-pyrazol-1-yl)benzoic Acid], the IC50 in assay [1] was greater than 200 µM; in assay [2], 38.1 ± 3.8 µM; in assay [3] (setting [5]), greater than 200 µM.

`Cc1nn(-c2ccc(C(=O)O)cc2)c(O)c1Cc1ccc[nH]1` [Compound 31, 4-(4-((1H-Pyrrol-2-yl)methyl)-5-hydroxy-3-methyl-1H-pyrazol-1-yl)benzoic Acid]: the 50% inhibitory concentration (IC50) in assay [1] was greater than 200 µM; in assay [2] (setting [4]), 17.2 ± 1.2 µM; in assay [3] (setting [5]), greater than 200 µM.

For the compound `CC1=NN(c2ccc(C(=O)O)cc2)C(=O)C1=Cc1ccco1` (mixture of isomers) [Compound 20, 4-(4-(Furan-2-ylmethylene)-3-methyl-5-oxo-4,5-dihydro-1H-pyrazol-1-yl)benzoic Acid], the figures for the IC50 in assay [1], in assay [2] and in assay [3] were greater than 200 µM, 16.8 ± 0.9 µM and 6.3 ± 0.4 µM, respectively.

Take `CC1=NN(c2ccc(C(N)=O)cc2)C(=O)/C1=C\c1ccc[nH]1` [Compound 37, (Z)-4-(4-((1H-Pyrrol-2-yl)methylene)-3-methyl-5-oxo-4,5-dihydro-1H-pyrazol-1-yl)benzamide]: the IC50 in assay [1] was greater than 200 µM; in assay [2] (setting [4]) it was 33.2 ± 2.4 µM; in assay [3] (setting [5]) it was greater than 200 µM.

`CC1=NN(c2ccc(C(=O)O)cc2)C(=O)/C1=C\c1cc[nH]c1` [Compound 23, (Z)-4-(4-((1H-Pyrrol-3-yl)methylene)-3-methyl-5-oxo-4,5-dihydro-1H-pyrazol-1-yl)benzoic Acid]: the IC50 in assay [1] is greater than 200 µM; in assay [2] (setting [4]), 33 ± 2 µM; in assay [3] (setting [5]), greater than 200 µM.

With `CC1=NN(c2ccc(C(=O)O)cc2)C(=O)/C1=C\c1cc(C(=O)c2ccccc2C)c[nH]1` [Compound 13, (Z)-4-(3-Methyl-4-((4-(2-methylbenzoyl)-1H-pyrrol-2-yl)methylene)-5-oxo-4,5-dihydro-1H-pyrazol-1-yl)benzoic Acid], the IC50 was greater than 200 µM in assay [1], 95 ± 10.2 µM in assay [2] (setting [4]) and 8.9 ± 0.6 µM in assay [3] (setting [5]).

In the case of `CC(C)C1=NN(c2ccc(C(=O)O)cc2)C(=O)/C1=C\c1ccc[nH]1` [Compound 33, (Z)-4-(4-((1H-Pyrrol-2-yl)methylene)-3-isopropyl-5-oxo-4,5-dihydro-1H-pyrazol-1-yl)benzoic Acid], the 50% inhibitory concentration (IC50) in assay [1] was greater than 200 µM; in assay [2] (setting [4]), 13.9 ± 0.9 µM; in assay [3] (setting [5]), greater than 200 µM.

For `CC1=NN(c2ccc(C(=O)O)cc2)C(=O)/C1=C\c1cccn1-c1ccccc1` [Compound 29, (Z)-4-(3-Methyl-5-oxo-4-((1-phenyl-1H-pyrrol-2-yl)methylene)-4,5-dihydro-1H-pyrazol-1-yl)benzoic Acid], the IC50 in assay [1] was greater than 200 µM; in assay [2] (setting [4]), 18.6 ± 0.8 µM; in assay [3] (setting [5]), 14.6 ± 0.6 µM.

Take `CC1=NN(c2ccc(C(=O)O)cc2)C(=O)/C1=C\c1c[nH]cn1` [Compound 25, (Z)-4-(4-((1H-Imidazol-4-yl)methylene)-3-methyl-5-oxo-4,5-dihydro-1H-pyrazol-1-yl)benzoic Acid]: the 50% inhibitory concentration (IC50) was greater than 200 µM in assay [1], 31.8 ± 2.1 µM in assay [2] (setting [4]) and 29.2 ± 1.7 µM in assay [3] (setting [5]).

With `CC1=NN(c2ccc(C(=O)O)cc2)C(=O)/C1=C\c1cc(C(=O)c2ccccc2)c[nH]1` [Compound 1, (Z)-4-(4-((4-Benzoyl-1H-pyrrol-2-yl)methylene)-3-methyl-5-oxo-4,5-dihydro-1H-pyrazol-1-yl)benzoic Acid], the IC50 in assay [1] was greater than 200 µM; in assay [2] (setting [4]), 90.5 ± 11.3 µM; in assay [3] (setting [5]), 13.6 ± 1 µM.

On to `CC1=NN(c2ccc(C(=O)O)cc2)C(=O)/C1=C(/C)c1ccc[nH]1` [Compound 30, (Z)-4-(4-(1-(1H-Pyrrol-2-yl)ethylidene)-3-methyl-5-oxo-4,5-dihydro-1H-pyrazol-1-yl)benzoic Acid], for which the IC50 in assay [1] was greater than 200 µM; in assay [2] (setting [4]), 19.4 ± 0.9 µM; in assay [3] (setting [5]), greater than 200 µM.

On to `CC1=NN(c2ccc(C(=O)O)cc2)C(=O)/C1=C\c1ccccc1` [Compound 22, (Z)-4-(4-Benzylidene-3-methyl-5-oxo-4,5-dihydro-1H-pyrazol-1-yl)benzoic Acid], for which the figures for the IC50 in assay [1], in assay [2] (setting [4]) and in assay [3] (setting [5]) were greater than 200 µM, 29.2 ± 1.7 µM and greater than 200 µM, respectively.

For `CC1=NN(c2ccc(C(=O)N(C)C)cc2)C(=O)/C1=C\c1ccc[nH]1` [Compound 38, (Z)-4-(4-((1H-Pyrrol-2-yl)methylene)-3-methyl-5-oxo-4,5-dihydro-1H-pyrazol-1-yl)-N,N-dimethylbenzamide], the half-inhibitory concentration (IC50) in assay [1] is greater than 200 µM; in assay [2] (setting [4]), 29.5 ± 1.8 µM; in assay [3] (setting [5]), greater than 200 µM.

As for `CC1=NN(c2ccc(C(=O)O)cc2)C(=O)/C1=C\c1cc(C(=O)c2ccccc2Cl)c[nH]1` [Compound 5, (Z)-4-(4-((4-(2-Chlorobenzoyl)-1H-pyrrol-2-yl)methylene)-3-methyl-5-oxo-4,5-dihydro-1H-pyrazol-1-yl)benzoic Acid], the IC50 was greater than 200 µM in assay [1], 88.9 ± 12.1 µM in assay [2] (setting [4]) and 5.3 ± 0.3 µM in assay [3] (setting [5]).

For orientation: IC50 means the midpoint of a concentration-inhibition curve.
